From patent US12459908B2, “Alpha, beta unsaturated methacrylic esters with anti-inflammatory properties” (Sitryx Therapeutics Limited, priority 2020, dated 2025)

What was measured:
IL-1β = experiment: THP-1 AlphaLISA IL-1β cytokine inhibition assay (differentiated THP-1 cells); type: cell-based; settings: LPS 24 hr then Nigericin 1 hour
Description: Biological Example 1—THP-1 AlphaLISA IL-1β
Measuring Inhibitory Effects on IL-1, Cytokine Output from THP-1s
(§1) The cytokine inhibition profiles of compounds of formula (I) were determined in a differentiated THP-1 cell assay. All assays were performed in RPMI-1640 growth medium (Gibco), supplemented with 10% fetal bovine serum (FBS; Gibco), 1% penicillin-streptomycin and 1% sodium pyruvate unless specified otherwise. The IL-1p cytokine inhibition assay was run in a background of differentiated THP-1 cells as described below. All reagents described were from Sigma-Aldrich unless specified otherwise. Compounds were prepared as 10 mM DMSO stocks.
(§2) THP-1 cells were expanded as a suspension up to 80% confluence in appropriate growth medium. Cells were harvested, suspended, and treated with an appropriate concentration of phorbol 12-myristate 13-acetate (PMA) over a 72 hr period (37° C./5% CO2).
(§3) Following 72 hrs of THP-1 cell incubation, cellular medium was removed and replaced with fresh growth media containing 1% of FBS. Working concentrations of compounds were prepared separately in 10% FBS treated growth medium and pre-incubated with the cells for 30 minutes (37° C./5% CO2). Following the 30 minute compound pre-incubation, THP-1s were treated with an appropriate concentration of LPS and the cells were subsequently incubated for a 24 hr period (37° C./5% CO2). An appropriate final concentration of Nigericin was then dispensed into the THP-1 plates and incubated for 1 hour (37° C./5% CO2) before THP-1 supernatants were harvested and collected in separate polypropylene 96-well holding plates.
(§4) Reagents from an IL-1β and IL-6 commercial kit (Perkin Elmer) were prepared and run according to the manufacturer's instructions. Subsequently, fluorescence signal detection in a microplate reader was measured (EnVision® Multilabel Reader, Perkin Elmer).
(§5) Percentage inhibition was calculated per cytokine by normalising the sample data to the high and low controls used within each plate (+/−LPS respectively). Percentage inhibition was then plotted against compound concentration and the 50% inhibitory concentration (IC50) was determined from the resultant concentration-response curve.

IL-6 = experiment: THP-1 AlphaLISA IL-6 cytokine inhibition assay (differentiated THP-1 cells); type: cell-based; settings: LPS 24 hr then Nigericin 1 hour
Description: as §1, §2, §3, §4, §5

NRF2 = NRF2 activation assay (DiscoverX PathHunter NRF2 translocation kit, U2OS cells); type: cell-based; settings: 6 hours
Description: Biological Example 2—NRF2 Activation Assay
Measuring Compound Activation Effects on the Anti-Inflammatory Transcription Factor NRF2 in DiscoverX PathHunter NRF2 Translocation Kit
Potency and efficacy of compounds of formula (I) against the target of interest to activate NRF2 (nuclear factor erythroid 2-related factor 2) were determined using the PathHunter NRF2 translocation kit (DiscoverX). The NRF2 translocation assay was run using an engineered recombinant cell line, utilising enzyme fragment complementation to determine activation of the Keap1-NRF2 protein complex and subsequent translocation of NRF2 into the nucleus. Enzyme activity was quantified using a chemiluminescent substrate consumed following the formation of a functional enzyme upon PK-tagged NRF2 translocation into the nucleus.
Additionally, a defined concentration of DMF was used as the ‘High’ control to normalise test compound activation responses to.
U2OS PathHunter eXpress cells were thawed from frozen prior to plating. Following plating, U2OS cells were incubated for 24 hrs (37° C./5% CO2) in commercial kit provided cell medium.
Following 24 hrs of incubation, plated U2OS cells were directly treated with an appropriate final concentration of compound. […]
Following compound treatment, the U2OS plates were incubated for a further 6 hours (37° C./5% CO2) before detection reagent from the PathHunter NRF2 commercial kit was prepared and added to test plates according to the manufacturer's instructions. Subsequently, the luminescence signal detection was measured in a microplate reader (PHERAstar®, BMG Labtech).
Percentage activation was calculated by normalising the sample data to the high and low controls used within each plate (+/−DMF). Percentage activation/response was then plotted against compound concentration and the 50% activation concentration ([…]) was determined from the plotted concentration-response curve.

[1] = Hepatocyte stability assay, mouse cryopreserved hepatocytes; type: in vitro ADME; settings: cryopreserved hepatocytes; Mouse hepatocytes, 10 μM, 60 min; class symbols; read-out: T½
Excerpt: (§6) Biological Example 3—Hepatocyte Stability Assay
(§7) Defrosted cryo-preserved hepatocytes (viability >70%) were used to determine the metabolic stability of a compound via calculation of intrinsic clearance (CIint; a measure of the removal of a compound from the liver in the absence of blood flow and cell binding). Clearance data are particularly important for in vitro work as they can be used in combination with in vivo data to predict the half-life and oral bioavailability of a drug.
(§8) The metabolic stability in hepatocytes assay involves a time-dependent reaction using both positive and negative controls. The cells were pre-incubated at 37° C. and spiked with test compound (and positive control); samples taken at pre-determined time intervals were analysed to monitor the change in concentration of the initial drug compound over 60 minutes. A buffer incubation reaction (with no hepatocytes present) acted as a negative control and two cocktail solutions, containing compounds with known high and low clearance values (verapamil/7-hydroxycoumarin and propranolol/diltiazem), acted as positive controls. • 1. The assay was run with a cell concentration of 0.5×10^6 cells/mL in Leibovitz buffer. • 2. All compounds and controls were run in duplicate. • 3. Compound concentration was 10 μM. • 4. All compounds and controls were incubated with both cells and buffer to show turnover was due to hepatic metabolism. • 5. All wells on the incubation plate had 326.7 μL of either cells or buffer added. • 6. Prior to assay, cell and buffer-only incubation plates were preincubated for 10 mins at 37° C. • 7. The assay was initiated by adding compounds, 3.3 μL of 1 mM in 10% DMSO-90% Buffer; final DMSO concentration is 0.1%. • 8. Samples were taken at regular timepoints (0, 5, 10, 20, 40, 60 min) until 60 mins. • 9. Sample volume was 40 μL and was added to 160 μL of crash solvent (acetonitrile with internal standard) and stored on ice. • 10. At the end of the assay, the crash plates were centrifuged at 3500 rpm for 20 mins at 4° C. • 11. 80 μL of clear supernatant was removed and mixed with 80 μL of deionised water before being analysed by LC-MS/MS.
(§9) Raw LC-MS/MS data was exported to, and analysed in, Microsoft Excel for determination of intrinsic clearance. The percentage remaining of a compound was monitored using the peak area of the initial concentration as 100%. Intrinsic clearance and half-life values were calculated using a graph of the natural log of percentage remaining versus the time of reaction in minutes. Half-life (min) and intrinsic clearance (CIint in μL min^−1 10^−6 cells) values were calculated using the gradient of the graph (the elimination rate constant, k) and Equations 1 and 2.

[2] = tested on: cryo-preserved hepatocytes; experiment: as above; type: in vitro ADME; settings: Mouse hepatocytes, 10 μM, 60 min
Excerpt: as §6, §7, §8, §9

[3] = Hepatocyte stability assay, human cryopreserved hepatocytes; type: in vitro ADME; settings: cryopreserved hepatocytes; Human hepatocytes, 10 μM, 60 min; class symbols; read-out: T½
Excerpt: as §6, §7, §8, §9

[4] = tested on: cryo-preserved hepatocytes; experiment: as above; type: in vitro ADME; settings: Human hepatocytes, 10 μM, 60 min; numeric values
Excerpt: as §6, §7, §8, §9

[5] = Homo sapiens, normalised to DMF high control, class symbols

Row | Structure (SMILES) | IC50 (IL-1β; Homo sapiens, class symbols) [µM] | IC50 (IL-6; Homo sapiens, class symbols) [µM] | EC50 (NRF2; Homo sapiens, class symbols) [µM] | half-life at 10 μM [1] [min] | Clint ([2]; class symbols) | half-life at 10 μM [3] [min] | Emax (NRF2; [5]) [%] | IC50 (IL-1β; numeric values) [µM] | IC50 (IL-6; numeric values) [µM] | NRF2 activation Emax (NRF2; normalised to DMF high control, numeric values) [%] | EC50 (NRF2; numeric values) [µM] | Clint ([2]; numeric values) [μL min^−1 10^−6 cells] | T½ ([2]; numeric values) [min] | Clint [4] [μL min^−1 10^−6 cells] | T½ [4] [min]
1 | C=C(Cc1nc(C2(c3ccc(C(F)(F)F)cc3)CC2)no1)C(=O)OCC(=O)O [Example 4, 2-((2-((3-(1-(4-(trifluoromethyl)phenyl)cyclopropyl)-1,2,4-oxadiazol-5-yl)methyl)acryloyl)oxy)acetic acid] | < 5 | 5 to 10 | 5 to 10 | 5 to 11 | ++ (++ means 95-350) | 60 to 100 | 135 to 165 |  |  |  |  |  |  |  | 
2 | C=C(Cc1nc(Cc2ccc(CCCC)cc2)no1)C(=O)O[C@@H](CC(=O)O)C(F)(F)F [Example 10, (S)-3-((2-((3-(4-butylbenzyl)-1,2,4-oxadiazol-5-yl)methyl)acryloyl)oxy)-4,4,4-trifluorobutanoic acid] | < 5 | < 5 | < 5 | ≤ 4 | + (+ means ≥351) | < 5 | 135 to 165 |  |  |  |  |  |  |  | 
3 | C=C(CC(=O)OCCCCCCCC)C(=O)O [4-octyl itaconate, reference compound] |  |  |  |  |  |  |  | 33 | 25 | 165 | 22 | 351 | 4 | 401 | 4
4 | C=C(Cc1nc(Cc2ccc(CCCC)cc2)no1)C(=O)OCCc1nnn[nH]1 [Example 14, 2-(1H-tetrazol-5-yl)ethyl 2-((3-(4-butylbenzyl)-1,2,4-oxadiazol-5-yl)methyl)acrylate] | < 5 | < 5 | < 5 | ≤ 4 | + (+ means ≥351) | 5 to 59 | 135 to 165 |  |  |  |  |  |  |  | 
5 | C=C(Cc1nc(CCCCCCCC)no1)C(=O)OCC(=O)O [Example 1, 2-((2-((3-octyl-1,2,4-oxadiazol-5-yl)methyl)acryloyl)oxy)acetic acid] | < 5 | < 5 | < 5 | ≤ 4 | + (+ means ≥351) | 5 to 59 | 135 to 165 |  |  |  |  |  |  |  | 
6 | C=C(Cc1nc(C2(c3ccc(C(F)(F)F)cc3)CC2)no1)C(=O)O[C@@H](CC(=O)O)C(F)(F)F [Example 8, (S)-4,4,4-trifluoro-3-((2-((3-(1-(4-(trifluoromethyl)phenyl)cyclopropyl)-1,2,4-oxadiazol-5-yl)methyl)acryloyl)oxy)butanoic acid] | < 5 | < 5 | < 5 | ≤ 4 | + (+ means ≥351) | 5 to 59 | 135 to 165 |  |  |  |  |  |  |  | 

Further lines, with some results ahead:

Row | IC50 (IL-1β; Homo sapiens, class symbols) [µM] | IC50 (IL-6; Homo sapiens, class symbols) [µM] | EC50 (NRF2; Homo sapiens, class symbols) [µM] | half-life at 10 μM [1] [min] | Clint ([2]; class symbols) | half-life at 10 μM [3] [min] | Structure (SMILES) | Emax (NRF2; [5]) [%] | IC50 (IL-1β; numeric values) [µM] | IC50 (IL-6; numeric values) [µM] | NRF2 activation Emax (NRF2; normalised to DMF high control, numeric values) [%] | EC50 (NRF2; numeric values) [µM] | Clint ([2]; numeric values) [μL min^−1 10^−6 cells] | T½ ([2]; numeric values) [min] | Clint [4] [μL min^−1 10^−6 cells] | T½ [4] [min]
7 | < 5 | < 5 | < 5 | ≤ 4 | + (+ means ≥351) | 5 to 59 | C=C(Cc1nc(Cc2ccc(CCCC)cc2)no1)C(=O)OCC(=O)O [Example 13, 2-((2-((3-(4-butylbenzyl)-1,2,4-oxadiazol-5-yl)methyl)acryloyl)oxy)acetic acid] | 166 to 250 |  |  |  |  |  |  |  | 
8 | < 5 | < 5 | 5 to 10 | 5 to 11 | ++ (++ means 95-350) | 5 to 59 | C=C(Cc1nc(C2(c3ccc(OC(F)(F)F)cc3)CC2)no1)C(=O)OCC(=O)O [Example 19, 2-((2-((3-(1-(4-(trifluoromethoxy)phenyl)cyclopropyl)-1,2,4-oxadiazol-5-yl)methyl)acryloyl)oxy)acetic acid] | 166 to 250 |  |  |  |  |  |  |  | 
9 | < 5 | < 5 | < 5 | ≤ 4 | + (+ means ≥351) | 5 to 59 | C=C(Cc1nc(CCCCCCCC)no1)C(=O)O[C@@H](CC(=O)O)C(F)(F)F [Example 6, (S)-4,4,4-trifluoro-3-((2-((3-octyl-1,2,4-oxadiazol-5-yl)methyl)acryloyl)oxy)butanoic acid] | > 250 |  |  |  |  |  |  |  | 
10 | < 5 | < 5 | 5 to 10 | 5 to 11 | ++ (++ means 95-350) | 60 to 100 | C=C(Cc1nc(C2(c3ccc(Br)cc3)CC2)no1)C(=O)OCC(=O)O [Example 18, 2-((2-((3-(1-(4-bromophenyl)cyclopropyl)-1,2,4-oxadiazol-5-yl)methyl)acryloyl)oxy)acetic acid] | 166 to 250 |  |  |  |  |  |  |  | 
11 | < 5 | < 5 | < 5 | ≤ 4 | + (+ means ≥351) | 5 to 59 | C=C(Cc1nc(C2(c3ccc(C(F)(F)F)cc3)CC2)no1)C(=O)O[C@H](CC(=O)O)C(F)(F)F [Example 7, (R)-4,4,4-trifluoro-3-((2-((3-(1-(4-(trifluoromethyl)phenyl)cyclopropyl)-1,2,4-oxadiazol-5-yl)methyl)acryloyl)oxy)butanoic acid] | 3 to 100 |  |  |  |  |  |  |  | 
12 | < 5 | < 5 | < 5 | ≤ 4 | + (+ means ≥351) | 5 to 59 | C=C(Cc1nc(CCCCCCCC)no1)C(=O)O[C@H](CC(=O)O)C(F)(F)F [Example 5, (R)-4,4,4-trifluoro-3-((2-((3-octyl-1,2,4-oxadiazol-5-yl)methyl)acryloyl)oxy)butanoic acid] | 135 to 165 |  |  |  |  |  |  |  | 
